Assay results from patent US20050261194A1, “Use of thymulin-like peptides for making pain-relieving medicines” (priority 2001, published 2005).

Test system: rats
Assay: CCI (chronic constriction injury) mononeuropathy: allodynia and hyperpathy
Format: in vivo, rat
Method: Adult male Sprague-Dawley rats (250-300 g) were used for these trials. Over the period of the experiments, the rats were placed under standard conditions (4 to 5 individuals to a cage, 12 hour day/night cycle, 22.2° C.), with free access to water and food. The necessary surgical procedures were done under deep anesthesia using ketamine (Ketalar®, 40-50 mg/kg, intraperitoneal injection), preceded by pre-anesthesia using chlorpromazine (8 mg/kg, idem) and atropine (0.05 mg/kg, idem).
Mononeuropathy was induced in different groups of rats (n=6 rats in each group) according to the CCI (chronic constriction injury, chronic nerve constriction, Bennet G. J. et Xie Y. K., 1988, A peripheral mononeuropathy in rat that produces disorders of pain sensation like those seen in man, Pain, 33:87-107) or according to the SNI (spared nerve injury, spared nerve of the enervated paw, Decosterd I. et Woolf C. J., 2000, Spared nerve injury: an animal model of persistent peripheral neuropathic pain, Pain, 87:149-158). The sciatic nerve was exposed after dissection of the posterior hip and by incision through the skin and the fatty layer covering the popliteal fossa. For the CCI model, four loose ligatures (chromed catgut 4.0) were placed on the proximal side of the sciatic trifurcation. For the SNI model, the external popliteal sciatic nerve and the internal popliteal sciatic nerve were isolated, tightly ligatured and sectioned, while the sural nerve innervating the lateral aspect of the paw was left intact.
The rats were placed in individual compartments of one cage, whose floor was made of a metal grating allowing access to the heel pad and to the lateral aspect of the paw with wires.
For mechanical allodynia, the plantar surface of the hind paws (lateral surface for the SNI model and the median plantar surface for the CCI) was contacted with the von Frey wires (VFF 4.31 and 5.07, Stoelting Co., USA), which corresponded to the forces of 2.041 and 11.749 g (18.5 and 106.7 mN), respectively. […] The number of paw retractions induced by 10 trials was established for each rat on each hind paw prior to (baseline) and after induction of the mono-neuropathy. In normal rats, the low caliber wires (VFF 4.31) and higher caliber (VFF 5.07) induced an average 1.3±0.2 and 2.7±0.3 responses/10 trials, respectively.
The method described by Choi et al. (1994, Behavioral signs of ongoing pain and cold allodynia in a rat model of neuropathic pain, Pain, 59:369-376) was used for evaluation of cold allodynia. It consists of applying several drops (approximately 50 μl) of an acetone solution on the paw and measuring the duration of the retraction reaction. One half second and 20 seconds are the values chosen arbitrarily for the minimum and maximum threshold, respectively.
The duration (D) of retraction of the paw (RP) in response to a nociceptive ray of radiant heat oriented towards the plantar surface was established in the normal rat. […] the DRP after induction of the mononeuropathy was considered to be an indication of hyperalgesia. Each rat underwent two RP tests per session a minimum of every five minutes.
The neuropathic manifestations were at maximum seven to ten days after induction of the neuropathy. The effects of the injections of TAP were tested during this period, which corresponds to the peak of the neuropathy.
During the experiments done on rats suffering from neuropathy, allodynia and hyperpathy were evaluated in each group of animals with reference to the baseline condition established prior to induction of mononeuropathy. For example, the average of the number of paw withdrawal induced by each VFF was calculated for all of the rats of each group and the variation of this mean has been determined after treatment with TAP at different time periods after the injection. The same method has been followed for allodynia in the code and the hypertrophy relative to heat.

## Glu-Ala-lys-Ser-Gln-Gly-Gly-Ser-Asp (SQGGSD; N-terminal Glu-Ala-Lys; printed: Ser-Gln-Gly-Gly-Ser-Asp) [TAP]
CCI, TAP 5 μg i.p.
  reversibility of the effects, time after injection: three to four hours
  time of maximum effect on cold allodynia after injection: 75 min
  time of maximum effect on hyperpathy after injection: 75 min
  time of maximum effect on mechanical allodynia after injection: two hours
CCI, doses 1, 5 and 25 μg compared, FIG. 7
  dose giving maximal attenuation of the neuropathic manifestations: 5 μg/rat
TAP 5 μg in 100 μl i.p., FIG. 5
  effect on neuropathic manifestations, CCI model: significant attenuation
